Key:
HT-29 [1] = assay: Inhibition of 20S proteasome in human HT-29 cells; assay type: cell-based
HT-29 [2] = assay: Cytotoxicity against human HT-29 cells; assay type: cell-based
HT-29 [3] = assay: Inhibition of 20S proteasome in human HT-29 cells at 6.7 uM by luminescence-based assay; assay type: cell-based
[4] = Chemical stability of the compound; assay type: physicochemical
[5] = Metabolic stability of the compound in human HT-29 cells; assay type: ADME, cell-based; details: read-out: Stability (converted)
[6] = Inhibition of human 20S proteasome

SMILES | ED50 (HT-29 [1]) | Activity (HT-29 [2]) | inhibition (HT-29 [3]) | Stability [4] | half-life [5] | IC50 [6]
CC[C@H](C)[C@H]1NC(=O)[C@@H](CCC(N)=O)NC(=O)CNC(=O)[C@H](Cc2ccc(O)cc2)/N=C/[C@H](CC(C)C)NC(=O)[C@H](C(C)C)NC(=O)[C@H](CO)NC1=O [SCYTONEMIDES A] | > 20 µg/mL | Non-toxic | 80% | 3 days | 2 h | –
CCCCC[C@H]1CC(=O)N[C@@H](CO)C(=O)N[C@@H](Cc2ccccc2)C(=O)N[C@@H](Cc2ccc(O)cc2)C(=O)N[C@H](CCCNC(N)=O)C(=O)N[C@@H](CC(=O)O)C(=O)O1 [scytonemides B] | – | – | – | – | – | > 50 µM
